Measured values reported in patent US20210300962A1, “LIPID PRODRUGS OF PREGNANE NEU[…] USES THEREOF” (PureTech LYT, Inc., priority 2018, published 2021).

Legend:
[1] = Non-human primate pharmacokinetic studies: plasma ALLO after oral ALLO or prodrug, and after IV ALLO; format: in vivo, male cynomolgus monkeys; settings: cynomolgus monkeys; for Vd: iv
Protocol: For the non-human primate studies, male cynomolgus monkeys were held in a large-animal research facility prior to the commencement of studies. The monkeys were fasted overnight up to 30 min prior to drug administration. Thirty minutes prior to drug administration, each monkey received 30 mL of Ensure Milkshake via oral gavage and was allowed access to a normal ration of primate chow. The primate chow was removed at the time of drug administration and was then returned 4 hours after drug administration. Water was available ad libitum throughout the study for all monkeys.
Test compounds were prepared in a long-chain lipid-based self-emulsifying drug delivery system (SEDDS) consisting of 30.5% w/w soybean oil, 30.5% w/w Maisine-CC, 31.6% w/w Cremophor EL, and 7.4% w/w ethanol. Parent ALLO (i.e., non-prodrug allopregnanolone) was prepared in a formulation of 20% aqueous hydroxypropyl-p-cyclodextrin. Formulations were filled into hard gelatin capsules. Test compounds were dosed at 5 mg/kg, and parent ALLO was dosed at 1.5 mg/kg. Drug was administered in a single capsule followed by 10 mL of water by oral gavage. For the IV group, parent ALLO (0.5 mg/kg dose) was administered as an intravenous bolus (formulation contained ALLO at a concentration of 1.5 mg/mL) by way of a percutaneous catheter placed in a peripheral vein followed by a 2 mL flush with normal saline prior to removal of the catheter.
After oral administration, blood samples (approx. 1 mL each) were taken via venipuncture of a peripheral vein 5 min prior to administration up to 48 hours post-dosing. Blood samples were transferred into tubes containing dipotassium EDTA anticoagulant, and the tubes were placed on crushed ice until processing. Within 30 minutes of collection, the blood samples were processed to isolate plasma by centrifuging at 2200×g for 10 minutes at 5° C.±3° C. The plasma samples were stored in polypropylene tubes at −80° C. prior to analysis.
Doses are normalized to a 1.5 mg/kg equivalent ALLO dose and data are presented as mean±SD (n=6). AUC was calculated using the trapezoidal method in PKsolver—non-compartment model. Statistical significance is defined as α<0.05 when using One-way ANOVA followed by Tukey's test (paired comparison).

[2] = Dog pharmacokinetic studies: plasma ALLO after oral ALLO or prodrug, and after IV ALLO; format: in vivo, male beagle dogs; settings: beagle dogs; for Vd: beagle, iv
Protocol: For the dog studies, male beagle dogs (body weights between 9.1-11.7 kg) were held in a large-animal research facility prior to the commencement of studies. The dogs were fasted for 12 h up to 30 min prior to drug administration. At 30 minutes prior to drug dosing, each animal received ˜20 g of high fat food (Teklad, TD.07096), then each animal was offered 100 g of beef-flavored canned food. Food was removed immediately prior to dosing. Following the 4 hour sample collection, food was returned (any remaining canned food and 200 g of regular diet). Water was available ad libitum throughout the study for all dogs.
For oral administration, test compounds were prepared in a suitable formulation such as a long-chain lipid based self-emulsifying drug delivery system (SEDDS) consisting of 30.5% w/w soybean oil, 30.5% w/w Maisine-CC, 31.6% w/w Cremophor EL and 7.4% w/w ethanol. Formulations were filled into hard gelatin capsules. Each animal received 2 size 000 capsules that in total contained ALLO (at 1.5 mg/kg dose) or ALLO prodrug (at 5 mg/kg dose, equivalent to approx. 1.5 mg/kg parent ALLO) in 2 grams of SEDDS formulation. Compound dissolved in the formulation was administrated to the fed dog by placing the capsules as far posterior to the pharynx as possible, closing the mouth and rubbing the throat to stimulate swallowing. Subsequently 10 mL of water was administered orally via a syringe.
For the IV group, parent ALLO (0.5 mg/kg dose) was administered as an intravenous bolus (formulation contained ALLO at concentration of 1.5 mg/mL) by way of a percutaneous catheter placed in a peripheral vein, followed by a 2 mL flush with normal saline.
Blood samples (approx. 1.5 mL each) were taken via venepuncture of the cephalic vein 5 min prior to administration up to 48 hours post-dosing. During the blood sample collection period the animals had free access to water but remained fasted for a further 4 hours following drug administration.
Plasma was separated by centrifugation and aliquots of each plasma sample transferred into eppendorf tubes and stored at −80° C. prior to analysis.
Doses are normalized to a 1.5 mg/kg equivalent ALLO dose and data are presented as mean±SD (n=4). AUC was calculated using the trapezoidal method in PKsolver—non-compartment model. Statistical significance is defined as α<0.05 when using One-way ANOVA followed by Tukey's test (paired comparison).

[3] = Rat pharmacokinetic studies: plasma allopregnanolone after oral prodrug or ALLO, and after IV ALLO; format: in vivo, male Sprague-Dawley rats
Protocol: In order to assess the oral bioavailability of test compounds, pharmacokinetic studies were conducted using the following procedure. The day before drug administration, male Sprague-Dawley rats (240-320 g) were anesthetized and the carotid artery was cannulated. The rats were then allowed to regain consciousness and fasted overnight prior to the commencement of experiments with free access to water. The next morning, formulations containing parent compounds or prodrugs were administered via oral gavage or via the jugular vein cannula, and blood samples were collected from the carotid artery cannula from −5 min up to 24 h post dosing. During the blood sample collection period the rats had free access to water but remained fasted for a further 8 h following drug administration. In these allopregnanolone (ALLO) related studies, the blood samples were centrifuged at 4500×g for 5 min to separate plasma. Plasma samples were stored at −20° C. prior to assay by HPLC-MS-MS. The whole blood or plasma samples were assayed for free drug (i.e. non-glyceride associated drug) and were not hydrolized prior to assay (as was the case with the lymph samples).
FIG. 3 illustrates dose-normalized ALLO plasma concentrations following oral gavage of ALLO related formulations to conscious, carotid artery-cannulated male SD rats. The ALLO oral formulation for each rat contained 2 mg of parent ALLO (i.e., non-prodrug allopregnanolone) suspended in 2 ml of suspending vehicle (0.50 sodium carboxymethyl cellulose, 0.4% Tween 80 and 0.9% NaCl in water). Prodrug formulations for each rat contained 2 mg of the ALLO prodrug dispersed in 40 mg oleic acid, 25 mg Tween 80 and 2 ml PBS. Doses were normalized to a 2 mg/kg equivalent dose of ALLO. Data are shown as mean±SD n≥3 or mean±range when n=2. […] Doses are normalized to a 2 mg/kg equivalent ALLO dose and data are presented as mean±SD when n≥3 or mean±range when n=2.
Also shown (bottom) is the calculated area under the curve (AUC) over 0-24 h for each of the test compounds as a fraction of the IV-administered allpregnanolone control.

For `CC(=O)[C@H]1CC[C@H]2[C@@H]3CC[C@H]4C[C@H](O)CC[C@]4(C)[C@H]3CC[C@]12C` [Allopregnanolone, 5α-pregnan-3α-ol-20-one], the “Apparent BA” value ([1]; IV ALLO (reference)) was 100%, the clearance ([1]; male, cynomolgus monkey, plasma, 0.5 mg/kg, IV ALLO, read-out: Cl (clearance)) was 42.2 ± 9 mL/min/kg and the Tmax ([1]; male, cynomolgus monkey, plasma, 0.5 mg/kg, IV bolus ALLO) was 4.8 min. For the same molecule, the AUC(0-inf) ([1]; male, cynomolgus monkey, plasma, 0.5 mg/kg, IV bolus ALLO, normalized to 1.5 mg/kg) was 1.93 ± 0.373 µM·h, the Cmax ([1]; male, cynomolgus monkey, plasma, 0.5 mg/kg, IV bolus ALLO, normalized to 1.5 mg/kg, mean±SD (n=6)) was 4.45 ± 0.73 µM and the half-life ([1]; male, cynomolgus monkey, plasma, 0.5 mg/kg, IV bolus ALLO, read-out: T1/2 (terminal phase half-life) (converted)) was 7.4 ± 1.2 h. The Vd ([1]; male, cynomolgus monkey, plasma, 0.5 mg/kg, IV ALLO, read-out: VSS (volume of distribution during the steady state phase)) was 2.6 ± 0.9 L/kg, the Vd ([1]; male, cynomolgus monkey, plasma, 0.5 mg/kg, IV ALLO, read-out: VZ (volume of distribution during the elimination phase)) was 26.9 ± 6.8 L/kg and the “Apparent BA” value ([2]; IV ALLO (reference)) was 100.0%. It also gave a Vd ([2]; male, dog, plasma, 0.5 mg/kg, IV ALLO, read-out: VSS (volume of distribution during the steady state phase)) of 14 ± 1.7 L/kg, a Vd ([2]; male, dog, plasma, 0.5 mg/kg, IV ALLO, read-out: VZ (volume of distribution during the elimination phase)) of 142 ± 29.5 L/kg and a clearance ([2]; male, dog, plasma, 0.5 mg/kg, IV ALLO, read-out: Cl (clearance)) of 160 ± 21.7 mL/min/kg. For the same molecule, the Tmax ([2]; male, dog, plasma, 0.5 mg/kg, IV bolus ALLO) was 0 h, the AUC(0-inf) ([2]; male, dog, plasma, 0.5 mg/kg, IV bolus ALLO, normalized to 1.5 mg/kg) was 0.498 ± 0.0633 µM·h and the Cmax ([2]; male, dog, plasma, 0.5 mg/kg, IV bolus ALLO, normalized to 1.5 mg/kg, mean±SD (n=4), read-out: Cmax (extrapolated C0)) was 3.5 ± 0.572 µM. The half-life ([2]; male, dog, plasma, 0.5 mg/kg, IV bolus ALLO, read-out: T1/2 (elimination phase half-life) (converted)) was 10.3 ± 0.8 h, the AUC ([3]; male, Sprague-Dawley, plasma, 2 mg/kg, rat, IV, equivalent dose of allopregnanolone, n=1, read-out: AUC after intravenous administration) was about 1.45 µM·h and the Cmax ([3]; plasma Allo after oral gavage to rats, doses normalized to 2 mg/kg equivalent ALLO, mean±SD (n≥3) or mean±range (n=2)) was “below LOQ)”. For the same molecule, the “plasma levels after oral administration” value ([3]; rat, oral parent allopregnanolone) was “below the limit of quantification”.
